The assay has as its target Alpha-2 adrenergic receptor (Rattus norvegicus). In words: Compound was tested for its binding affinity against Alpha-2 adrenergic receptor.

pKi: −log10 of the molar value.

Experimental findings from BindingDB's records for doi:10.7270/Q2930WC4 (n/a, 1995) are described below.

As a reminder, the pKi is −log10 of the Ki, conventionally taken in molar units. Read a high pKi as a small Ki.

`CCCN(CCCCCCN1CCC[C@@H]1Cc1ccc(O)c(O)c1)CCc1ccc(O)c(O)c1` gave a pKi of 6.52.
